Measurements as given in patent US7892767B2, “Phosphospecific chemokine receptor antibodies” (Washington University in St. Louis, priority 2005, dated 2011).

Tests used:
[1] = system: PDE4A-expressing U87 cells; experiment: Viable cell number, PDE4A-expressing U87 cells; assay type: cell-based, human; settings: CXCL12 1 μg/ml, AMD 3465 2.5 μg/ml, Rolipram 200 μM
Procedure: (§1) PDE4A expression. U87 and Daoy cells (15,000 cells) were transiently transfected for 48 h with a plasmid encoding a transgene for the tet-off transactivator (tTA) alone (kind gift from Dr. Louis Muglia, Washington University School of Medicine, St. Louis, Mo.), a plasmid containing a transgene for tet-off regulated expression of phosphodiesterase 4A (PDE4A) alone (kind gift from Dr. James Cherry, Boston University, Boston, Mass.), or a combination of both plasmids, using lipofectamine (Invitrogen) according to the manufacturer's instructions. Plasmid DNA (2 μg) was mixed with lipofectamine (5 μl) per 35 mm^2 dish. Transfection proceeded for 9 hours prior to exchanging transfection media for αMEM supplemented with 10% FCS.

U87 GBM xenografts = experiment: Intracranial U87 xenograft growth by bioluminescence imaging; assay type: in vivo, mouse
CXCR4 = CXCR4 (Homo sapiens, UniProt P61073); settings: compared with AMD 3100, reference (84); cited from earlier work
Daoy xenografts [2] = experiment: cAMP in xenograft tumor tissue by ELISA; assay type: in vivo, mouse; settings: same treatment paradigms as growth studies, EGFP-luciferase xenografts
Procedure: cAMP measurement in tumor tissue. EGFP-expressing tumor tissue was removed under direct fluorescence microscopy and frozen in liquid nitrogen. Frozen tissue was weighed and homogenized with 10 volumes of 10% ice-cold trichloroacetic acid, then centrifuged for 10 min at 4000 rpm to remove precipitate. The supernatant was washed three times with 8 volumes of water-saturated ether. The aqueous phase was dried down and resuspended in cAMP assay buffer.
(§2) Determination of cAMP concentration. Competitive immunoassay for cAMP concentration was performed exactly as directed by the manufacturer. Absorbance at 405 nm was measured and cAMP concentrations were determined by calculation based on a standard curve. Protein concentrations were measured by colormetric assay (Bio-Rad, Hercules, Calif.) according to the manufacturer's directions. cAMP values were normalized to protein for each sample individually.
To ascertain whether the in vivo anti-tumor effects of Rolipram and AMD 3465 were correlated with increases in intratumoral cAMP, we repeated the treatment paradigms with Daoy xenografts that had been engineered to express both enhanced green fluorescent protein (EGFP) and firefly luciferase. […] Tumor tissue was easily visualized in situ under direct fluorescence microscopy (FIG. 20A). Cyclic AMP was extracted from GFP positive tissue, and cAMP levels were measured by ELISA.

[3] = system: PDE4A-expressing Daoy cells; experiment: Viable cell number, PDE4A-expressing Daoy cells; assay type: cell-based, human; settings: CXCL12 1 μg/ml, AMD 3465 2.5 μg/ml, Rolipram 200 μM
Procedure: as §1

Daoy xenografts [4] = experiment: Intracranial Daoy xenograft growth by bioluminescence imaging; assay type: in vivo, mouse
[5] = system: Daoy medulloblastoma cells; experiment: Viable cell number by trypan blue exclusion, Daoy cells; assay type: cell-based, human; settings: Rolipram 200 μM, AMD 3465 2.5 μg/ml; for effect on CXCL12 induced growth: with CXCL12 1 μg/ml, Forskolin 10 μM
Procedure: (§3) Brain tumor cell cultures. Cells were cultured in αMEM (Invitrogen, Carlsbad, Calif.) supplemented with 10% FCS (Biomedia, Foster City, Calif.) in the presence of penicillin streptomycin at 37° C. with 5% CO2.
(§4) Growth factor and drug treatment. Following serum-starvation for 24 hours, astrocytes, granule cells, U87 cells and Daoy cells, were treated with 1 μg/ml CXCL12 (PeproTech), […] AMD3465 (kind gift from Simon Fricker, AnorMED, Langley, BC, Canada) (200 μM Rolipram (Sigma), or 10 μM Forskolin (Sigma) as indicated.

U87 glioblastoma cells [6] = experiment: Viable cell number by trypan blue exclusion, U87 cells; assay type: cell-based, human; settings: Rolipram 200 μM, AMD 3465 2.5 μg/ml; for effect on CXCL12 induced growth: with CXCL12 1 μg/ml, Forskolin 10 μM
Procedure: as §3, §4

[7] = system: Daoy medulloblastoma cells; experiment: Intracellular cAMP by ELISA, Daoy medulloblastoma cells; assay type: cell-based, human
Procedure: as §4
(§5) cAMP measurement in cell culture. cAMP concentration was measured using a Correlated-EIA™. Enzyme Immunoassay Kit (Assay Designs Inc. MI) according to the manufacturer's instructions. Briefly, U87 or Daoy cells were serum-starved for 24 hours, and treated with CXCL12 (1 μg/ml), Rolipram (200 μM), or forskolin (10 μM). Cells were lysed in 0.1M HCL and particulate matter was removed by centrifugation at >600×g for 10 min. The supernatants were dried down and resuspended in assay buffer.
as §2

U87 glioblastoma cells [8] = experiment: Intracellular cAMP by ELISA, U87 glioblastoma cells; assay type: cell-based, human
Procedure: as §4, §5, §2

[9] = added to chemotherapy and radiation therapy; decreased consciousness and increased seizure activity; reference (109); cited from earlier work
[10] = Tolerability in xenograft-bearing mice; assay type: in vivo, mouse; settings: 5 μg/g/day in the drinking water
[11] = in vivo; cited from earlier work
[12] = continuous subcutaneous infusion 50 μg/day (2.5 mg/kg/day) for 5 weeks
[13] = AMD 3465 2.5 μg/ml coadministered with CXCL12 1 μg/ml
[14] = 5 μg/g/day in the drinking water, from two weeks after tumor cell injection
[15] = Rolipram 200 μM or Forskolin 10 μM, not abrogated by CXCL12

Sequence of CXCR4 (P61073 whole entry, species assumed): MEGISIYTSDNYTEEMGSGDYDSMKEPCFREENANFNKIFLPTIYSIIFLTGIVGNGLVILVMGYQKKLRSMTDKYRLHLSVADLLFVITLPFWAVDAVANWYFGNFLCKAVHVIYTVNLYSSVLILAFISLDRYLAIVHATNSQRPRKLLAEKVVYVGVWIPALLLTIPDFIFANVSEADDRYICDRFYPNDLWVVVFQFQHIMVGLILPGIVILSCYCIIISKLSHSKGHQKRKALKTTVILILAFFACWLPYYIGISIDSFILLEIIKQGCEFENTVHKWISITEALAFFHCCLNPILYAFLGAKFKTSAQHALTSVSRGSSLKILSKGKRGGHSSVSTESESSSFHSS

c1ccc(CNCc2ccc(CN3CCCNCCNCCCNCC3)cc2)nc1 [AMD 3465]
effect on cell number [1]: no effect
inhibition of xenograft growth as compared to controls (U87 GBM xenografts; [12]): 80%
affinity for CXCR4 (CXCR4): greater affinity
amount of cAMP within tumor tissue (Daoy xenografts [2]): significant increase
effect on cell number [3]: no effect
inhibition of xenograft growth as compared to controls (Daoy xenografts [4]; [12]): 85%
effect on cell number alone [5]: no significant effect
effect on CXCL12 induced growth [5]: completely blocked
effect on cell number alone (U87 glioblastoma cells [6]): no significant effect
effect on CXCL12 induced growth (U87 glioblastoma cells [6]): completely blocked
effect on cAMP levels alone ([7]; AMD 3465 2.5 μg/ml): little to no effect
CXCL12-induced suppression of cAMP [7, 13]: blocked
effect on cAMP levels alone (U87 glioblastoma cells [8]; AMD 3465 2.5 μg/ml): little to no effect
CXCL12-induced suppression of cAMP (U87 glioblastoma cells [8]; [13]): blocked

CC(=O)CCCCn1c(=O)c2c(ncn2C)n(C)c1=O [Pentoxiphyllin]
toxicity [9]: excessive toxicity

COc1ccc(C2CNC(=O)C2)cc1OC1CCCC1 (centres unmarked) [Rolipram]
animal weights compared to the control group ([10]; data not shown): better maintained
appearance of treated animals ([10]; throughout the treatment period): appeared well
effect on cell number [1]: growth inhibitory effect
inhibition of xenograft growth (U87 GBM xenografts; [14]): 96%
amount of cAMP within tumor tissue (Daoy xenografts [2]): significant increase
effect on cell number [3]: growth inhibitory effect
inhibition of xenograft growth (Daoy xenografts [4]; [14]): 58%
blood brain barrier passage [11]: crosses an intact blood brain barrier
effect on cell number alone [5]: little to no effect
effect on CXCL12 induced growth [5]: completely blocked
effect on cell number alone (U87 glioblastoma cells [6]): little to no effect
effect on CXCL12 induced growth (U87 glioblastoma cells [6]): completely blocked
change in intracellular cAMP [7, 15]: predictable increases
change in intracellular cAMP (U87 glioblastoma cells [8]; [15]): predictable increases
